Where “and” joins values, the source holds several entries; their conditions need not be identical. Equal entries are not always repeated.
Experiments:
[1] = target: T1, rat GABAA receptors α2β2γ2 (Rattus norvegicus, UniProt P18508+P23576); assay: Stimulation of GABA (EC3-5)-elicited currents in Xenopus oocytes, two-electrode voltage clamp, α2β2γ2; type: cell-based
T1 construct: expressed in transfected cells; host or cells: Xenopus laevis oocytes, cRNA microinjected
Source text: (§1) 7-Chloro-3-(5-dimethylaminomethyl-[1,2,4]oxadiazol-3-yl)-5methyl-4,5-dihydro-imidazol[1,5,-a][1,4]benzodiazepine-6-one was used to test the effects of the compound of formula (II): […]
(§2) Similar procedures were chosen as for the investigation of other GABAA receptor subunit specific substances (e.g., Baur et al., 2005; Mol. Pharmacol. 68, 787-792).
(§3) Lobes of the ovary containing the follicles were obtained by surgical procedures from female Xenopus laevis. Follicles were singled out using a platinum loop. Fifty nL of cRNA solution at a ratio of αx:β2:γ2 of 1:1:5 (3.3-10 nM αx (x=1,2,3,5); 3.3-10 nM β2; 16.7-50 nM γ2) (Boileau et al., 2002; Neuropharmacology 43, 695-700) were microinjected into Xenopus follicles. Several hours after microinjection the follicles were freed of follicular layers and adhering connective tissue by a collagenase/hypertonic shock procedure (Sigel, 1987; J. Physiol.(Land) 386, 73-90). Oocytes were kept at constant 18° C. until measurement (1-4 days) in a modified Barth solution (88 mM NaCl, 1 mM KCl, 2.4 mM NaHCO3, 10 mM Hepes-NaOH (pH 7.5), 0.82 mM MgSO4×7H2O, 0.34 mM Ca(NO3)2×4H2O, 0.41 mM CaCl2×2H2O, 100 U Penicillin/mL, 100 μg Streptomycin/mL, sterile filtered).
(§4) Currents were measured using a home-built amplifier in combination with a xy-recorder or were digitized using a MacLab/200 (AD Instruments) and stored on a computer. Xenopus oocytes were voltage clamped using the two-electrode voltage clamp technique (electrode resistance about 0.8 MΩ) at −80 mV. The medium contained 90 mM NaCl, 1 mM KCl, 1 mM MgCl2, 1 mM CaCl2, 10 mM Na-Hepes (pH 7.4) and 0.5% DMSO.
(§5) GABA was applied for 20-50 seconds without or in combination with other drugs and a washout period of 4 minutes was allowed to ensure full recovery from desensitization, which was experimentally determined. The perfusion solution (6 mL/min) was applied through a glass capillary with an inner diameter of 1.35 mm, the mouth of which was placed about 0.4 mm from the surface of the oocyte. The rate of solution change under our conditions has been estimated 70% within less than 0.5 s (Sigel et al., 1990; Neuron 5, 703-711). The entire perfusion system and the assay chamber were cleaned between drug applications by washing with DMSO.
(§6) Data is given as mean±SD, except in the figures where data is shown for clarity as mean±SEM. Current stimulation was calculated as follows: stimulation (%)=((I(GABA+modulator)−I(GABA))/I(GABA))×100%, where I is the current amplitude. Where indicated, the stimulation was standardized to the stimulation by 1 μM diazepam (100%). To obtain FIGS. 1-4, values for current stimulation obtained at a given concentration of modulator at a given subunit combination were averaged. The data points were fitted with the equation stimulation=efficacy/(1+(potency/concentration of modulator)). The values given in the Tables (Summary) are obtained by fitting individual curves and subsequently averaging efficacy and potency.
(§7) Concentration response curves were also performed with oocytes expressing α2β2γ2, α3β2γ2, or α5β2γ2, after establishing the optimal concentration range as indicated above. […] Averaged data of the individual curves summarizing the effects of the compound of formula (II) are shown below for unstandardized and standardized stimulation.
(§8) Concentration response curves were also performed with oocytes expressing α2β2γ2, α3β2γ2, or α5β2γ2.
(§9) Current stimulation by diazepam was determined in each batch of oocytes as follows. GABA (EC3-5) was applied until a stable response was obtained. Subsequently, GABA was applied in combination with 1 μM diazepam.

[2] = target: T2, rat GABAA receptors α1β2γ2 (Rattus norvegicus, UniProt P18508+P62813); assay: Stimulation of GABA (EC3-5)-elicited currents in Xenopus oocytes, two-electrode voltage clamp, α1β2γ2; type: cell-based; conditions: for Standardized Efficacy: standardized to stimulation by 1 μM diazepam (100%)
T2 construct: expressed in transfected cells; host or cells: Xenopus laevis oocytes, cRNA microinjected
Source text: as §1, §2, §3, §4, §5, §6
GABA (EC3-5) was applied to an oocyte expressing α1β2γ2 GABAA receptors several times until the current response was stable. The GABA (EC3-5) refers to the effective concentration of GABA, which produces a response that is 3-5% of the maximal response to high concentrations of GABA. Such a low concentration of GABA is chosen in order to better see the potentiating effect of positive allosteric modulators.
GABA was then applied in combination with various concentrations of the compound of formula (II) between 0.3 nM and 3,000 nM to produce a cumulative concentration response curve. […] In each batch of oocytes the stimulation by 1 μM diazepam was determined in five ocytes, extent of stimulation averaged and defined as 100%. Where indicated, stimulation by the compound of formula (II) in each batch of ocytes was expressed as a percentage of this value in the corresponding batch.
GABA (EC3-5) was applied to an oocyte expressing α1β2γ2 GABAA receptors several times until the current response was stable.

[3] = target: T3, rat GABAA receptors α5β2γ2 (Rattus norvegicus, UniProt P18508+P19969); assay: Stimulation of GABA (EC3-5)-elicited currents in Xenopus oocytes, two-electrode voltage clamp, α5β2γ2; type: cell-based
T3 construct: expressed in transfected cells; host or cells: Xenopus laevis oocytes, cRNA microinjected
Source text: as §1, §2, §3, §4, §5, §6, §7, §8, §9

[4] = test system: GABAA receptors; conditions: 20 mg, in man, PET; cited from earlier work
[5] = target: T4, rat GABAA receptors α3β2γ2 (Rattus norvegicus, UniProt P18508+P20236); assay: Stimulation of GABA (EC3-5)-elicited currents in Xenopus oocytes, two-electrode voltage clamp, α3β2γ2; type: cell-based
T4 construct: expressed in transfected cells; host or cells: Xenopus laevis oocytes, cRNA microinjected
Source text: as §1, §2, §3, §4, §5, §6, §7, §8, §9

[6] = standardized to stimulation by 1 μM diazepam (100%)
[7] = unstandardized current stimulation
[8] = 1 μM, different batches of oocytes, n=5

T4 sequence (P20236 29-493): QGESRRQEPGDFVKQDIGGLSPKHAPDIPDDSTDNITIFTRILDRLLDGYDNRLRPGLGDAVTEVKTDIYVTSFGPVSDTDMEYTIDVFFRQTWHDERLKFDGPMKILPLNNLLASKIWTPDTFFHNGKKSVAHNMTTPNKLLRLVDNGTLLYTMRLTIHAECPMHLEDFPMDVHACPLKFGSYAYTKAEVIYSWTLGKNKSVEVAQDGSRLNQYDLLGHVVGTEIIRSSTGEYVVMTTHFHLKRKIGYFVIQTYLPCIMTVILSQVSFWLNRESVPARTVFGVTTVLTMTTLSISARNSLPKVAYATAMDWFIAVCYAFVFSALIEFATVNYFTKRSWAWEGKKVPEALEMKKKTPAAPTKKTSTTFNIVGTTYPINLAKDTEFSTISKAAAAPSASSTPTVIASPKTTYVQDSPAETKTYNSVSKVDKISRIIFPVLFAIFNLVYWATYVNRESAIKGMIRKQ
T4 sequence (P63138 25-474 partner limits assumed): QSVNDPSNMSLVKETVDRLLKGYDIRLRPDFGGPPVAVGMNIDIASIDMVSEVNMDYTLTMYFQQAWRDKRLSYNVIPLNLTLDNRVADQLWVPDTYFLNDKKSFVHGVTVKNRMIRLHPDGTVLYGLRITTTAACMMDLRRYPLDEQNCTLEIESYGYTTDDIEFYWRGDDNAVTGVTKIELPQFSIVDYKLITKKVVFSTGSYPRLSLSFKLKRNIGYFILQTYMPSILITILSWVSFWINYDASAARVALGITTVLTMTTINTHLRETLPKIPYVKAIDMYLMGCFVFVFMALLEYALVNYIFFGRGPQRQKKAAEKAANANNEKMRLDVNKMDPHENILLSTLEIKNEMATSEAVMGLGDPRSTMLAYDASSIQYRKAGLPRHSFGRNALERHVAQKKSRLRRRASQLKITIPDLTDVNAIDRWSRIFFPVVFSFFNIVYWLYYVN
T4 sequence (P18508 39-466): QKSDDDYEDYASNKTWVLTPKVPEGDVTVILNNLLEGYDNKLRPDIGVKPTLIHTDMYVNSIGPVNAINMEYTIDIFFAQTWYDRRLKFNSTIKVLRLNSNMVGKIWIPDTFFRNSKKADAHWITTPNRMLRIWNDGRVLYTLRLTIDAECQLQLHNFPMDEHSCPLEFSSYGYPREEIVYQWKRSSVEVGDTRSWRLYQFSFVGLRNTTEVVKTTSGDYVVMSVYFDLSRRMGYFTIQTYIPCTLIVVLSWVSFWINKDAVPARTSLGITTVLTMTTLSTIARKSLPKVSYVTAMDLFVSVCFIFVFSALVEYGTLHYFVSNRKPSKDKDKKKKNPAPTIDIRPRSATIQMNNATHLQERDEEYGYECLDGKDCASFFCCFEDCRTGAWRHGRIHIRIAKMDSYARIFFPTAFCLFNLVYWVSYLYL
T1 sequence (P23576 29-451): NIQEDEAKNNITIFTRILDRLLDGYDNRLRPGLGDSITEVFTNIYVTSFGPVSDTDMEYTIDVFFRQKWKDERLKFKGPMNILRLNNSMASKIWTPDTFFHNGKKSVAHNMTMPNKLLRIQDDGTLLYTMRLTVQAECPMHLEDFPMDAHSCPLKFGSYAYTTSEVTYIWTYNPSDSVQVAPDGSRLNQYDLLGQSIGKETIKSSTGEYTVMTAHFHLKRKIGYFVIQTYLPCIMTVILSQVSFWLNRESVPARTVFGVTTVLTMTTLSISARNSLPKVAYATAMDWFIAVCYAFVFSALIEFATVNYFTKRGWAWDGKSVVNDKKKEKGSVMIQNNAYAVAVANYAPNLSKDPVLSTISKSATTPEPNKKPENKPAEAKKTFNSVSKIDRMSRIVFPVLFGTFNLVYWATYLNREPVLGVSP
T1 sequence (P63138 25-474 partner limits assumed): as the sequence (P63138 25-474 partner limits assumed) above
T1 sequence (P18508 39-466): as the sequence (P18508 39-466) above
T3 sequence (P19969 32-464 limits assumed): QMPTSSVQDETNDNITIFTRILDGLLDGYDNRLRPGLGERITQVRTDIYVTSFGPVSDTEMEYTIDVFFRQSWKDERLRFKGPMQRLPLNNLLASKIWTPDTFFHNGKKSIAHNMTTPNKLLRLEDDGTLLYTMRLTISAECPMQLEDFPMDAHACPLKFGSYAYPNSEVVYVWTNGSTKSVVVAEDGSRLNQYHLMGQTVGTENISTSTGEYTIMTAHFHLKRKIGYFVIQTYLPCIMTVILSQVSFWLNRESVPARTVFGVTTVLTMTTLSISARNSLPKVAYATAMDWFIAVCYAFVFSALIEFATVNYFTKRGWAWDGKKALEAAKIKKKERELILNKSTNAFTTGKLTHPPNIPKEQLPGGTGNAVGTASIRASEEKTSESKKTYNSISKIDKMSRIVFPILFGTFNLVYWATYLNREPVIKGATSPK
T3 sequence (P63138 25-474 partner limits assumed): as the sequence (P63138 25-474 partner limits assumed) above
T3 sequence (P18508 39-466): as the sequence (P18508 39-466) above
T2 sequence (P62813 28-455): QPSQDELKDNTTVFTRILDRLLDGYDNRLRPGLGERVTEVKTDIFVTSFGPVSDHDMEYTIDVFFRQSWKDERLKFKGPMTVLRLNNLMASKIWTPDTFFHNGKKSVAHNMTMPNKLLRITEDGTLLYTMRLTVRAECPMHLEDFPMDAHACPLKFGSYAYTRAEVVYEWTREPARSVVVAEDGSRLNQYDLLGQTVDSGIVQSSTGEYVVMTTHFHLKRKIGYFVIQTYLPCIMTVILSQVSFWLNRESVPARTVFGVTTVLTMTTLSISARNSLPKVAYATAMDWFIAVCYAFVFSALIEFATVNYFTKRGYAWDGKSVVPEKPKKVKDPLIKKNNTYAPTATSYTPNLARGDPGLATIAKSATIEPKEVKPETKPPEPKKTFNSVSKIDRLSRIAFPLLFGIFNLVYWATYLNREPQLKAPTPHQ
T2 sequence (P63138 25-474 partner limits assumed): as the sequence (P63138 25-474 partner limits assumed) above
T2 sequence (P18508 39-466): as the sequence (P18508 39-466) above

SMILES | Standardized Efficacy [1, 6] [%] | Efficacy [1, 7] [%] | Intrinsic activity / type of allosteric modulation ([2]; GABAA receptor benzodiazepine site, relative to diazepam) | Receptor subtype affinity ([2]; in comparison to α2β2γ2, α3β2γ2 and α5β2γ2) | Standardized Efficacy ([2]; α1β2γ2) [%] | Standardized Efficacy ([2]; α1β2γ2, listed as zolpidem) [%] | Efficacy ([2]; α1β2γ2, unstandardized current stimulation) [%] | Standardized Efficacy [3, 6] [%] | Efficacy [3, 7] [%] | receptor occupancy [4] | Standardized Efficacy [5, 6] [%] | Efficacy [5, 7] [%] | Stimulation by 1 μM diazepam [1, 8] | Stimulation by 1 μM diazepam ([2]; α1β2γ2, 1 μM, different batches of oocytes, n=5) | Stimulation by 1 μM diazepam [3, 8] | Stimulation by 1 μM diazepam [5, 8]
Cc1ccc(-c2nc3ccc(C)cn3c2CC(=O)N(C)C)cc1 [Zolpidem, zolpidem] | 179 ± 23 | 484 ± 60 | full agonist | higher affinity at α1β2γ2 GABAA receptors | 215 ± 74 | 215 | 429 ± 120 | 16 ± 4 | 33 ± 12 | about 20% | 166 ± 88 | 691 ± 365 | – | – | – | –
CN1C(=O)CN=C(c2ccccc2)c2cc(Cl)ccc21 [diazepam] | – | – | – | – | – | – | – | – | – | – | – | – | 264+61% and 280+71% and 318+62% | 223+28% and 178+20% | 237+97% and 160+4% | 417+85% and 417+144%

Reference: patent US20090054412A1, “Treatment of Sleep Disorders” (priority 2007, published 2009)
